Data set [1] relates to Mycobacterium tuberculosis. As to the kind of experiment: Antitubercular activity against Mycobacterium tuberculosis H37Rv assessed as growth inhibition at 6.25 ug/ml after 4 days by microplate alamar blue assay. It is filed as functional. Conditions: 96 h.
Data set [2] deals with Mycobacterium tuberculosis. As to the kind of experiment: Antitubercular activity against Mycobacterium tuberculosis H37Rv assessed as growth inhibition by 2-fold dilution assay. The class given is functional.
The test system of data set [3] is Vero. As to the kind of experiment: Cytotoxicity against African green monkey Vero cells. It is filed as cell-based. Conditions: Chlorocebus sabaeus.
The nature of data set [4]: Selectivity index, ratio of IC50 for African green monkey Vero cells to MIC for Mycobacterium tuberculosis H37Rv. The class given is toxicity, cell-based. Conditions: read-out: Selectivity Index.

Converted amounts (≈) assume the structure as drawn.

In the case of `Cc1nn(-c2ccc3c(c2)Nc2ccccc2S3)c2c1C(c1cccc(Cl)c1)NC(N)=N2` (centres undefined), in data set [1], the inhibition at 6.25 µg/mL turned out to be 56%.
On to `Cc1nn(-c2ccc3c(c2)Nc2ccccc2S3)c2c1C(c1ccccc1)NC(N)=N2` (centres undefined), for which, in data set [1], the inhibition at 6.25 µg/mL came out at 78%.
For `Cc1nn(-c2ccc3c(c2)Nc2ccccc2S3)c2c1C(c1ccccc1O)NC(N)=N2` (centres undefined), the MIC in data set [2] amounted to 2.23 µg/mL (≈ 5.06 µM). Also, the IC50 in data set [3] is 7.8 µg/mL (≈ 17.7 µM). The inhibition at 6.25 µg/mL in data set [1] amounted to 92%. The selectivity ratio in data set [4] is 3.5.
Consider `Cc1nn(-c2ccc3c(c2)Nc2ccccc2S3)c2c1C(c1cccc(O)c1)NC(N)=N2` (centres undefined), for which the inhibition at 6.25 µg/mL in data set [1] was 57%.
As for `Cc1nn(-c2ccc3c(c2)Nc2ccccc2S3)c2c1C(c1ccc(O)cc1)NC(N)=N2` (centres undefined), in data set [1], the inhibition at 6.25 µg/mL worked out at 67%.
With `Cc1nn(-c2ccc3c(c2)Nc2ccccc2S3)c2c1C(c1ccccc1Cl)NC(N)=N2` (centres undefined), in data set [2], the MIC was found to be 1.73 µg/mL (≈ 3.77 µM). For the same compound, the IC50 in data set [3] is more than 10 µg/mL. Further, in data set [1], the inhibition at 6.25 µg/mL was 95%. Besides, the selectivity ratio in data set [4] is 5.8.
As to `Cc1nn(-c2ccc3c(c2)Nc2ccccc2S3)c2c1C(c1ccc(Cl)cc1)NC(N)=N2` (centres undefined), in data set [2], the MIC was found to be 0.02 µg/mL (≈ 0.0436 µM). This compound also gave an IC50 in data set [3] of more than 10 µg/mL. Besides, the inhibition at 6.25 µg/mL in data set [1] was 100%. Also, the selectivity ratio in data set [4] was more than 500.
Take `Cc1nn(-c2ccc3c(c2)Nc2ccccc2S3)c2c1C(c1ccccc1[N+](=O)[O-])NC(N)=N2` (centres undefined): the MIC in data set [2] is 1.73 µg/mL (≈ 3.68 µM). Also, the IC50 in data set [3] was more than 10 µg/mL. Also, the inhibition at 6.25 µg/mL in data set [1] was determined as 94%. Further, the selectivity ratio in data set [4] was 5.8.
As for `Cc1nn(-c2ccc3c(c2)Nc2ccccc2S3)c2c1C(c1cccc([N+](=O)[O-])c1)NC(N)=N2` (centres undefined), the inhibition at 6.25 µg/mL in data set [1] came out at 73%.
For the compound `Cc1nn(-c2ccc3c(c2)Nc2ccccc2S3)c2c1C(c1ccc([N+](=O)[O-])cc1)NC(N)=N2` (centres undefined), the MIC in data set [2] was 1.73 µg/mL (≈ 3.68 µM). Besides, the IC50 in data set [3] turned out to be 9.1 µg/mL (≈ 19.4 µM). Besides, the inhibition at 6.25 µg/mL in data set [1] was 95%. For the same compound, the selectivity ratio in data set [4] turned out to be 5.2.
As to `COc1ccc(C2NC(N)=Nc3c2c(C)nn3-c2ccc3c(c2)Nc2ccccc2S3)cc1` (centres undefined), the inhibition at 6.25 µg/mL in data set [1] amounted to 42%.
As for `NNC(=O)c1ccncc1` [ISONIAZID], the MIC in data set [2] turned out to be 0.03 µg/mL (≈ 0.219 µM). Also, in data set [3], the IC50 was more than 1000 µg/mL. For the same compound, the selectivity ratio in data set [4] is more than 40000.

What is called inhibition is the share of the control response that was lost under treatment. A word on the MIC: it is the lowest concentration that inhibits growth of the organism. Usually IC50 stands for the midpoint of a concentration-inhibition curve.

(Values after ChEMBL document CHEMBL3124789, “4,5-Dihydro-1H-pyrazolo[3,4-d]pyrimidine containing phenothiazines as antitubercular agents” (Bioorg Med Chem Lett, 2014).)
